Source: patent publication US7629318B2, “Immunosuppressant compounds, methods and uses related thereto” (priority 2002, dated 2009)
“And” between values parts separate entries of the source, which are not always exact repeats. Identical values can stand only once. Like-named read-outs stand apart in the source and are kept apart here. Numbered stars: 1 amine (or outer) side, 2 acyl side, 3 side chain; on linkers, the order of the positions; unused ones are H or OH. Square brackets hold non-standard residues; d marks the D form. Peptide text beside a SMILES is read from it. * marks the point of attachment. ξ: configuration not given here. Gly(1-amidinopiperidin-4-yl) = N=C(N)N1CCC([C@H](N)C(=O)O)CC1; X1 = CC(C)c1oc([C@H](CO)N[*:1])nc1C(=O)[*:2]; Pro(3R-Ph) = O=C(O)[C@H]1NCC[C@@H]1c1ccccc1; Tic = O=C(O)[C@@H]1Cc2ccccc2CN1; Cha = N[C@@H](CC1CCCCC1)C(=O)O; NMe(benzyl) = CN(Cc1ccccc1)*; ξDisc = O=C(O)C1NCc2ccccc21; Nle = CCCC[C@H](N)C(=O)O; X2 = OCCOCCN(Cc1ccccc1)*

What was measured:
[1] = target: DR4Dw4 (DRA1*0101 DRB1*0401) (Homo sapiens, UniProt P01903+P01911, A100K/A169T/F76Y/I96L/K127E/L162R/M171V/N62H/P40V/Q125Y/R42H/S133A/S149N/S66Y/V115G/V209L/W38E); experiment: Competitive binding to MHC-II protein DR4Dw4
Summary of the method: (§1)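 Each MHC-II allele incubated with compound 16 hours at room temperature in duplicate; controls lacked compound, or both compound and MHC-II. Complexes captured 2 h at 4 °C, bound biotinylated peptide detected via europium-streptavidin and DELFIA enhancement, time-resolved fluorescence read at ex 340/em 613 (615) nm.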

[2] = target: DR4Dw14 (DRA1*0101 DRB1*0404) (Homo sapiens, UniProt P01903+P01911, A100R/A169T/F76Y/I96L/K127E/L162R/M171V/N62H/P40V/Q125Y/R42H/S133A/S149N/S66Y/V209L/W38E); experiment: Competitive binding to MHC-II protein DR4Dw14; conditions: 0404; read-out: Protein binding IC50 (nM) 0404
Summary of the method: as §1

[3] = target: T1, Priess (DR4Dw4: DRA1*0101 DRB1*0401) cells (Homo sapiens, UniProt P01903+P01911, A100K/A169T/F76Y/I96L/K127E/L162R/M171V/N62H/P40V/Q125Y/R42H/S133A/S149N/S66Y/V115G/V209L/W38E); experiment: Competitive binding to MHC II proteins expressed on Priess cells; assay type: cell-based
T1 construct: MHC II Proteins Expressed on PRIESS and LG2 Cells; endogenous in cells; host or cells: Priess cells
Experimental: (§2) For use in the binding assay the cells were re-suspended in medium containing 1% FCS at a density of 2.5×10^6 cells/ml.
(§3) The assay was performed in sterile 96 well polystyrene microtiter plates. A 10 fold dilution series of compounds (16 nM-1615 μM) in 1% FCS was prepared from 5 or 10 mM compound stock solutions in 10% DMSO/water. 50 μl of each compound dilution were added in duplicates to 50 μl of a 16 μM solution of indicator peptide in 1% FCS. Cell binding was initiated by adding 100 μl of 2.5×10^6 cells/ml 1% FCS to each well. Controls were included containing the DMSO concentration present in the solution with the highest compound concentration. The cells were incubated at 37° C., 6% CO2. After 4 hours the cells were washed with 200 μl PBS and lysed in 200 μl lysis buffer (50 mM sodium phosphate, 150 mM sodium chloride, 1% (w/v) NP-40, 25 mM iodoacetamide, 1 mM PMSF, 3.1% protease inhibitor cocktail: 0.32 g/l of Chymostatin, Antipain, Pepstatin A, Soybean trypsin inhibitor and Leupeptin each, pH 7.5) for 10 min.
(§4) After washing with PBS, 190 μl of cell lysate were transferred to the appropriate wells of the capture plate and incubated for 2 h at 4° C. The wells were washed six times with 200 μl/well cooled (4 to 8° C.) of 1×DELFIA wash (Wallac-ADL-GmbH, Freiburg), incubated with 100 μl of cooled Europium-streptavidin conjugate (Wallac-ADL-GmbH, Freiburg; diluted 1/1000 with DELFIA assay buffer) for 30 minutes at 4° C., again washed six times with cooled 1×DELFIA wash and, finally, incubated with 200 μl cooled DELFIA enhancement solution (Wallac-ADL-GmbH, Freiburg) for one hour at room temperature before reading the time-resolved europium fluorescence at λex Eu^3+: 340 nm and λem Eu^3+: 613 (615) nm (Wallac Victor^2 1420 Multilabel Counter, Wallac-ADL-GmbH, Freiburg).

[4] = target: T2, LG2 (DR1: DRA1*0101 DRB1*0101) cells (Homo sapiens, UniProt P01903+P01911, A100R/D57E/F55L/F60I/F76Y/I96L/L162R/M171V/P40L/Q125E/R42F/V115G/Y59C); experiment: Competitive binding to MHC II proteins expressed on LG2 cells; assay type: cell-based; conditions: LG2 (0101)
T2 construct: MHC II Proteins Expressed on PRIESS and LG2 Cells; endogenous in cells; host or cells: LG2 cells
Experimental: as §2, §3, §4

[5] = Stability of compounds in rat blood plasma; assay type: in vitro ADME
Summary of the method: (§5)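 Compounds at 5 μM final in rat, mouse or human plasma, incubated at 37 °C and sampled at 0, 6 and 24 h. Proteins precipitated with acetonitrile and the supernatant dried and reconstituted in 50% acetonitrile/0.1% TFA. PBS controls run for unstable compounds.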

[6] = Stability of compounds in human blood plasma; assay type: in vitro ADME
Summary of the method: as §5

[7] = target: Cathepsin B1 (EC 3.4.22.1 from bovine spleen) (Bos taurus, UniProt P07688); conditions: Cathepsin B, 4 h
[8] = Cell binding IC50 (uM) LG2 (0101)

SMILES | IC50 ([1]; read-out: Protein binding IC50 (nM) 0401, 0401) [nM] | IC50 [2] [nM] | IC50 ([3]; read-out: Cell binding IC50 (uM) Priess (0401), Priess (0401)) [µM] | IC50 ([4]; read-out: Cell binding IC50 (uM) LG2 (0101)) [µM] | Stability (Arbitrary units) Rat 6 h [5] [Arbitrary units] | Stability (Arbitrary units) Rat 24 h [5] [Arbitrary units] | Stability (Arbitrary units) Human 6 h [6] [Arbitrary units] | Stability (Arbitrary units) Human 24 h [6] [Arbitrary units] | Stability (Arbitrary units) Cath B 4 h [7] [Arbitrary units] | IC50 [1] [nM] | IC50 [3] [µM] | IC50 [4, 8] | Stability (Arbitrary units) Human 6 h ([6]; human plasma, 6 h) [Arbitrary units] | Stability (Arbitrary units) Human 24 h ([6]; human plasma, 24 h) [Arbitrary units]
CCCC[C@H](NC(=O)C1c2ccccc2CN1C(=O)[C@@H](NC(=O)[C@H](CC1CCCCC1)NC(C)=O)C1CCN(C(=N)N)CC1)C(=O)N(C)Cc1ccccc1 (single isomer, unassigned) [Compound P76-1, Ac-Cha-Gpg-Disc-Nle-N(Me)Bn] | 2300 | 1400 | 9.8 | 4.6 | 80 | 84 | 93 | 107 | 100 |  |  |  |  | 
CCCC[C@H](NC(=O)C1c2ccccc2CN1C(=O)[C@@H](NC(=O)[C@H](CC1CCCCC1)NC(C)=O)C1CCN(C(=N)N)CC1)C(=O)N(C)Cc1ccccc1 (single isomer, unassigned) [Compound P78-1] |  | 1400 |  |  | 80 | 84 | 93 | 107 | 100 | 2300 | 9.8 | 4.6 µM |  | 
CSCC[C@H](NC(=O)[C@@H]1Cc2ccccc2CN1C(=O)[C@H](CCCNC(=N)N)NC(=O)[C@H](CC1CCCCC1)NC(C)=O)C(N)=O [Compound P1, Ac-Cha-Arg-Tic-Met-NH2] (Ac-[Cha]R[Tic]M-NH2) |  | 2300 |  |  | 11 | 0 | 94 |  | 87 | 1600 | 11 | 8.8 µM and 6.8 µM |  | 
CSCC[C@H](NC(=O)C1c2ccccc2CN1C(=O)[C@H](CCCNC(=N)N)NC(=O)[C@H](CC1CCCCC1)NC(C)=O)C(N)=O (stereo partly drawn) [Compound P12-1, Ac-Cha-Arg-Disc-Met-NH2] (Ac-[Cha]R[ξDisc]M-NH2) |  | 860 |  |  | 67 | 10 | 75 | 0 | 96 | 370 | 6.7 | 9.6 µM |  | 
CSCC[C@H](NC(=O)[C@@H]1Cc2ccccc2CN1C(=O)[C@H](CCCNC(=N)N)NC(=O)[C@H](CC1CCCCC1)NC(C)=O)C(=O)N1CC[C@H](c2ccccc2)[C@H]1C(N)=O [Compound P31, Ac-Cha-Arg-Tic-Met-βPhPro-NH2] (Ac-[Cha]R[Tic]M[Pro(3R-Ph)]-NH2) |  | 850 |  |  | 42 | 5 | 93 | 86 | 102 | 280 | 3.7 | 8.5 µM |  | 
CCCC[C@H](NC(=O)[C@@H]1Cc2ccccc2CN1C(=O)[C@H](CCCNC(=N)N)NC(=O)[C@H](CC1CCCCC1)NC(C)=O)C(=O)N1CC[C@H](c2ccccc2)[C@H]1C(=O)N[C@@H](CO)c1nc(C(=O)N(C)C)c(C(C)C)o1 [Compound P51, Ac-Cha-Arg-Tic-Nle-βPhPro-[S(oxaz)L]-NMe2] (Ac-[Cha]R[Tic][Nle][Pro(3R-Ph)][X1]-NMe2) |  | 210 |  |  | 81 | 60 | 119 | 129 | 103 | 670 |  | 3 µM |  | 
CCCC[C@H](NC(=O)[C@@H]1Cc2ccccc2CN1C(=O)[C@H](CCCNC(=N)N)NC(=O)[C@H](CC1CCCCC1)NC(C)=O)C(=O)N(C)Cc1ccccc1 [Compound P71, Ac-Cha-Arg-Tic-Nle-N(Me)Bn] (Ac-[Cha]R[Tic][Nle]-{NMe(benzyl)}) |  |  |  |  | 89 | 53 | 107 | 90 | 97 |  |  |  |  | 
CCCC[C@H](NC(=O)[C@@H]1Cc2ccccc2CN1C(=O)[C@@H](NC(=O)[C@H](CC1CCCCC1)NC(C)=O)C1CCN(C(=N)N)CC1)C(=O)N(CCOCCO)Cc1ccccc1 [Compound P101, Ac-Cha-Gpg-Tic-Nle-N(Bn)CH2CH2OCH2CH2OH] (Ac-[Cha][Gly(1-amidinopiperidin-4-yl)][Tic][Nle]-X2) |  | 650 |  |  | 73 | 81 |  | 107 | 100 | 1500 |  |  | 106 | 
CSCC[C@H](NC(=O)[C@@H]1Cc2ccccc2CN1C(=O)[C@@H](NC(=O)[C@H](CC1CCCCC1)NC(C)=O)C1CCN(C(=N)N)CC1)C(=O)N(CCOCCO)Cc1ccccc1 [Compound P102, Ac-Cha-Gpg-Tic-Met-N(Bn)CH2CH2OCH2CH2OH] (Ac-[Cha][Gly(1-amidinopiperidin-4-yl)][Tic]M-X2) |  | 2100 |  |  | 131 | 121 | 110 |  | 116 | 1700 |  |  |  | 116
